Reference: US20130280187A1, “Compositions and Methods for Improving the Appearance of Facial Pores” (THE PROCTER & GAMBLE COMPANY, priority 2012, published 2013)
Several values for one entry are separate records, joined by “and”; a condition that tells them apart may be missing. Equal entries are not always repeated.

Tests used:
hyalauronic acid = assay: In vitro skin biomarker test, hyalauronic acid ELISA in MatTek human skin equivalent; type: cell-based; settings: 24 hours after treatment, Glyco-Repair 3% topical, TGF-b 2 ng/mL in media
Description: (§1) The model used in the test is a MatTek™ brand human skin equivalent available from the MatTek Corporation, which is a full thickness culture system that emulates normal human skin properties and function. The MatTek™ brand skin model contains a three-dimensional, highly differentiated human epidermis with 8-12 cell layers including basal, spinous, granular and stratum corneum layers. The epidermis is grown above a human dermal fibroblast-containing collagen matrix. The skin model is configured to permit the topical application of test materials to the stratum corneum surface of the model. The skin model cultures are supplied in 24-well plate. Each well of the plate includes a snap-well fitting and the skin culture in a media-supplemented agarose gel.
(§2) Prior to testing, the skin model cultures are examined for visual defects and equilibrated overnight at 37° C., 5% CO2, and 95% RH. The skin cultures were transferred to fresh 24-well plates by removing the snap-well fitting along with the skin culture and placing it in a well of the new plate. […]
(§3) Twenty-four hours after treatment, the skin cultures were removed from the incubator and visually inspected for defects (e.g., to see if media leaked up through the culture insert). […] The supernatant was collected and analyzed with a Micro BCA kit to quantitate protein concentration. […]

procollagen I = assay: In vitro skin biomarker test, procollagen I ELISA in MatTek human skin equivalent; type: cell-based; settings: average of cultures, 24 hours after treatment; Glyco-Repair 3% topical, TGF-b 2 ng/mL in media
Description: as §1, §2, §3

Substance: transforming growth factor beta [TGF-b]
- Avg (normalized protein, hyalauronic acid) (hyalauronic acid; average of cultures): 2.8
- HA (hyalauronic acid; single skin cultures): 562 ng/mL and 480 ng/mL and 598 ng/mL and 545 ng/mL and 568 ng/mL
- Avg Normalized Protein (procollagen I) (procollagen I): 29.8
